Source: patent publication US20120071475A1, “UREA DERIVATIVES HAVING PI3K-INHIBITING ACTIVITY” (SHIONOGI & CO., LTD., priority 2009, published 2012)
Like-named read-outs stand apart in the source and are kept apart here.

Legend:
[1] = target: PI3Kγ (Homo sapiens, UniProt P48736); assay: PI3Kγ inhibitory activity (Ki value); assay type: biochemical
Outline: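 Ki derived from IC50 measured at final compound levels of 50–0.05 μmol/L (HTRF read-out; 40 μmol/L ATP, 10 mmol/L MgCl2, 5 mmol/L DTT), IC50 by logistic or two-point linear fit. ATP Km from Lineweaver-Burk over 0.625–80 μmol/L ATP; Ki = IC50/(1+[ATP]/Km).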

[2] = target: PI3Kα (Homo sapiens, UniProt P42336); assay: PI3Kα inhibitory activity (Ki value); assay type: biochemical
Chain of PI3Kα (P42336 whole entry, species assumed): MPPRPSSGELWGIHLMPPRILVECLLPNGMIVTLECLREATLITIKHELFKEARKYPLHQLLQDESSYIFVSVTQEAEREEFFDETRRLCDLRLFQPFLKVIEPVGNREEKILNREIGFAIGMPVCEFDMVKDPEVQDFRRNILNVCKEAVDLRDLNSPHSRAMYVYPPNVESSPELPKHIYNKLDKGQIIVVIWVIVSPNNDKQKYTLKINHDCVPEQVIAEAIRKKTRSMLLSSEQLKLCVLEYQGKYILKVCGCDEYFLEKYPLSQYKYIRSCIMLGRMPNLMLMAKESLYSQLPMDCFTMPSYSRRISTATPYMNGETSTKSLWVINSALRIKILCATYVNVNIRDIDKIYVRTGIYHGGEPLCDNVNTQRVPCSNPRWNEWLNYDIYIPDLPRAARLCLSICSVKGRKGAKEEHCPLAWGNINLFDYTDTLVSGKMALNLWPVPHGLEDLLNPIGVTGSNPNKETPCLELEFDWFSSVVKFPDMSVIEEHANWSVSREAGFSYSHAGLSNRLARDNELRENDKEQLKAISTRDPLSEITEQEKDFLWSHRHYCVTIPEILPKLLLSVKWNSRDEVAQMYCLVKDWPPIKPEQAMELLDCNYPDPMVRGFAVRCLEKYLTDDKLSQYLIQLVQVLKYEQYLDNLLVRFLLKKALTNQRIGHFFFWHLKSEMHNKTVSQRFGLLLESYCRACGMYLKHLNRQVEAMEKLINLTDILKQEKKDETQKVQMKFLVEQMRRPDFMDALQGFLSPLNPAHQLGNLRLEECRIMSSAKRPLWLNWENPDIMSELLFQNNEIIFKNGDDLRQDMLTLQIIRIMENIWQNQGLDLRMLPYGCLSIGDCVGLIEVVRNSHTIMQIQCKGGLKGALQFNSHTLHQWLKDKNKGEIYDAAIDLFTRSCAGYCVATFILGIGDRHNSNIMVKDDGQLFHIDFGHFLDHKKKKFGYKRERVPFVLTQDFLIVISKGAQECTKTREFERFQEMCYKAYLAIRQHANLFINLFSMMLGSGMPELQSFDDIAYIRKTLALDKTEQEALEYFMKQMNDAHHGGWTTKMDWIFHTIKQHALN
Chain of PI3Kα (P27986 whole entry partner, species assumed): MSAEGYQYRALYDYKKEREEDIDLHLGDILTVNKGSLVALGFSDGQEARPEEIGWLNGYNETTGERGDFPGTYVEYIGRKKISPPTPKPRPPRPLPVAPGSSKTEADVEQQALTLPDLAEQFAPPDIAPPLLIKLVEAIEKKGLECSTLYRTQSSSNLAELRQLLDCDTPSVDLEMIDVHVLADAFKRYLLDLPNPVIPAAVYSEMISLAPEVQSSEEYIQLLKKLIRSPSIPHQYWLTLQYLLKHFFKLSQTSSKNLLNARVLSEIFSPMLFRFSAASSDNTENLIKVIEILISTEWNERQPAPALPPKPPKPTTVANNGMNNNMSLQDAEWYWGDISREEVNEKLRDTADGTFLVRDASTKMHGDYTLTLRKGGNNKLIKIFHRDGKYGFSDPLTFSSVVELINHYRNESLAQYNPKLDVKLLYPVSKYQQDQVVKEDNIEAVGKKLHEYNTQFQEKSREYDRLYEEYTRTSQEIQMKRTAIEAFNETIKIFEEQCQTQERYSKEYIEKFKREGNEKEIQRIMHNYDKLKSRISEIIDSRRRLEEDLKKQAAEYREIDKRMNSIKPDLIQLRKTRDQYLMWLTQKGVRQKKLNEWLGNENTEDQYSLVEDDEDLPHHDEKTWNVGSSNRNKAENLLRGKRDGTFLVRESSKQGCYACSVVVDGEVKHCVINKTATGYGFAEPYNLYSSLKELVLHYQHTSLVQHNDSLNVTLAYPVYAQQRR
Protocol: According to Example 2 above, after 80 μg/mL PI-3 kinase γ of the enzyme solution (80 μg/mL PI-3 kinase γ, 10 mmol/L MgCl2, 5 mmol/L DTT) was changed to 0.8 μg/mL PI-3 kinase α, an inhibition ratio was calculated by a method similar to the method for measuring PI3Kγ inhibitory activity, and then defined as the PI3Kα inhibitory activity.
The α inhibitory activity (Ki value) of a compound was evaluated according to the following procedure.
According to Example 4 above, a Km value for PI3Kα was determined to calculate a Ki value.

[3] = target: T1, hERG channel (IKr) (Homo sapiens, UniProt Q12809); assay: hERG test (whole-cell patch-clamp, IKr in HEK293 cells); assay type: cell-based; settings: human, HEK293 cells expressing hERG channel, pH 7.4, inhibition of maximum tail current (IKr), compound 1 μM
T1 construct: expressed in transfected cells; host or cells: HEK293
T1 sequence (Q12809 whole entry): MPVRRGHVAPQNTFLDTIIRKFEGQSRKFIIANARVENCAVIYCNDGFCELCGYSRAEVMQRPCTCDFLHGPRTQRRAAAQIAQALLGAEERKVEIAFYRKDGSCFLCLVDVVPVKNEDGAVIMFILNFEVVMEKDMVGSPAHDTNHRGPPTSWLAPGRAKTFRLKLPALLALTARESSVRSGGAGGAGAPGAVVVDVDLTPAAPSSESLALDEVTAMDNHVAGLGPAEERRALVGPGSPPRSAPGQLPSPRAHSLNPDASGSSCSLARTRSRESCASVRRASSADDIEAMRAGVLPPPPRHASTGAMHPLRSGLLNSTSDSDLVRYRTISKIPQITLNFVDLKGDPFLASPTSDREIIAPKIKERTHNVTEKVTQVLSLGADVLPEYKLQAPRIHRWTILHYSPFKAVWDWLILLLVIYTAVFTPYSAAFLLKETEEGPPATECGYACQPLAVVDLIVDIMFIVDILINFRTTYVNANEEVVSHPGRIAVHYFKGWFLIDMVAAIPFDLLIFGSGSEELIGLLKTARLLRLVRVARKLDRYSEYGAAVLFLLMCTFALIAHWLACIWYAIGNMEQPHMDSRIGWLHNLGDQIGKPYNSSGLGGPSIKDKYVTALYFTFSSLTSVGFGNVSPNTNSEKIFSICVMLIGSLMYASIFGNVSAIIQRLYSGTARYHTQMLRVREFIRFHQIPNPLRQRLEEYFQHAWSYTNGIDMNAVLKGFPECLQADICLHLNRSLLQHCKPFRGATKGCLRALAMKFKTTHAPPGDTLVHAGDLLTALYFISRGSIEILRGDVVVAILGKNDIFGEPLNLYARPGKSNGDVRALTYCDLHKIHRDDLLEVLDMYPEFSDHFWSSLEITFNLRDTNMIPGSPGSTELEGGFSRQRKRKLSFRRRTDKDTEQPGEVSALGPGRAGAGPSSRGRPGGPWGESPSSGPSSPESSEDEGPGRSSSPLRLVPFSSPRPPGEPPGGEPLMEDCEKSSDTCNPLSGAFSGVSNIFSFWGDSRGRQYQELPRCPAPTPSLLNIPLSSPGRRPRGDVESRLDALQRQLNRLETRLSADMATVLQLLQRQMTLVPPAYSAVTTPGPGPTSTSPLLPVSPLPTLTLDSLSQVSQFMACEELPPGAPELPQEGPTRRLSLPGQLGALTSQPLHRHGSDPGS
Outline: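 hERG-expressing HEK293 cells, automated whole-cell patch clamp: hold −80 mV, +50 mV for 2 s, then −50 mV for 2 s to record IKr tail current. Compound in extracellular solution (pH 7.4) for 10 min at room temperature; inhibition of maximum tail current calculated versus pre-application and compared with 0.1% DMSO vehicle.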

[4] = tested on: CYP1A2, CYP2C9, CYP2C19, CYP2D6 and CYP3A4 (one value for the five species); assay: CYP inhibition test, five CYP species together (5CYPs_IC50; pooled human liver microsome); assay type: in vitro ADME; settings: human, microsomes
Outline: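 Pooled human liver microsomes (0.2 mg/mL) in 50 mM Hepes were incubated with a substrate cocktail of 0.5 μM ethoxyresorufin, 100 μM tolbutamide, 50 μM S-mephenytoin, 5 μM dextromethorphan and 1 μM terfenadine plus NADPH for 15 min at 37 °C. Compound tested at 1–20 μM (4 points). Metabolites read by fluorescence or LC/MS/MS, and IC50 derived by logistic fit against a DMSO control.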

[5] = class symbols, read-out: PI3K γ Ki
[6] = class symbols, read-out: PI3K α Ki

Chain of PI3Kγ (P48736 whole entry, species assumed): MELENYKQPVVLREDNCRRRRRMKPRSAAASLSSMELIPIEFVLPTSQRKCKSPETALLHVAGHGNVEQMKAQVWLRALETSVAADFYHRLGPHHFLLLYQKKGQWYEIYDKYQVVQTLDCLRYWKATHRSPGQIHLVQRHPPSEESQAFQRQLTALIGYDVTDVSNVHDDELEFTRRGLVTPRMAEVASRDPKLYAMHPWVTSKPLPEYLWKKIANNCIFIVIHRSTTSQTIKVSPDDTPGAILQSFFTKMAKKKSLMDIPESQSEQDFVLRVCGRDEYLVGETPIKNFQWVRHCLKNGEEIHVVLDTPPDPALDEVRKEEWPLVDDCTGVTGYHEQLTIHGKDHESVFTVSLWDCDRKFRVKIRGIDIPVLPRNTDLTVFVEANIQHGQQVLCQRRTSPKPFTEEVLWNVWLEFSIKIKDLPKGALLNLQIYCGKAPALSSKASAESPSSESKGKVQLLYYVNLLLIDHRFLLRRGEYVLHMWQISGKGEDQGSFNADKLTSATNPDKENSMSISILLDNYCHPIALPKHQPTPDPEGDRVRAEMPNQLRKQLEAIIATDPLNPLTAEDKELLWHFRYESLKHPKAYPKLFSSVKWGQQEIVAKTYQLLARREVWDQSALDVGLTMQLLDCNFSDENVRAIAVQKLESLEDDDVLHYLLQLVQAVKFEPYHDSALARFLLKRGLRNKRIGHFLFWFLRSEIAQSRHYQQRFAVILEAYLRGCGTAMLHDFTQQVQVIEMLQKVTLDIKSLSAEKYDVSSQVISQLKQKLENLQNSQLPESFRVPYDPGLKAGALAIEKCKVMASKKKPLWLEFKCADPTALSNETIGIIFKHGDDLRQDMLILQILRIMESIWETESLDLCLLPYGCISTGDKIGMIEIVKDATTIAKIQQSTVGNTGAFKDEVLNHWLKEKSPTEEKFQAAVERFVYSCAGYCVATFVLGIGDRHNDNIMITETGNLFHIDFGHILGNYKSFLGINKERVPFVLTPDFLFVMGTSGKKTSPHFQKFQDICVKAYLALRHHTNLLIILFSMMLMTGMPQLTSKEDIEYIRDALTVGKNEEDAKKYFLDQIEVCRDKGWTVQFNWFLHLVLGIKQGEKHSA

Compound	Ki [1, 5] [nM]	Ki ([1]; read-out: PI3Kγ Ki value) [nM]	Ki [2, 6] [nM]	Ki ([2]; read-out: PI3Kα Ki value) [nM]	inhibition at 10 min, 1 µM [3] [%]	IC50 at 15 min [4] [nM]
COc1cc(N2CCc3nc(NC(=O)Nc4ccccc4C(=O)NC(C)C)sc3C2)nc(OC)n1 [Compound I-12]	≤ 30	9.6	> 3000	> 12000	–	–
COc1cc(N2CCc3nc(NC(=O)Nc4ccccc4C(=O)NCCF)sc3C2)nc(OC)n1 [Compound I-88]	–	–	–	–	5.7	≥ 10000
COc1nc(Cl)cc(N2CCc3nc(NC(=O)Nc4cnccc4C(=O)NC(C)C)sc3C2)n1 [Compound I-91]	≤ 3	1.4	> 3000	–	0.9	≥ 10000
COc1cncc(-c2ccc3nc(NC(=O)Nc4ccccc4OCCC(C)C)cn3n2)c1 [Compound I-114]	≤ 300	33	≤ 3000	1100	–	> 20000
Cc1nc(NC(=O)Nc2ccccc2C(=O)NC(C)C)sc1-c1ccc(S(C)(=O)=O)c(F)c1 [Compound I-127]	≤ 30	16	> 3000	> 7000	0.6	–
CC(C)NC(=O)c1ccccc1NC(=O)Nc1nc2c(s1)CN(c1cncc(C(F)(F)F)c1)CC2 [Compound I-131]	≤ 3	0.8	> 3000	–	3.9	≥ 10000
COc1cc(N2CCc3nc(NC(=O)Nc4cn(C)nc4C(=O)NCC(F)(F)F)sc3C2)nc(OC)n1 [Compound I-148]	≤ 30	5.5	≤ 3000	–	3.3	–
Cc1nc(NC(=O)Nc2ccccc2C(=O)NC(C)C)sc1-c1csc(S(=O)(=O)N(C)CCN(C)C)c1 [Compound I-191]	–	300	–	–	–	≥ 10000
COc1nc(Cl)cc(N2CCc3nc(NC(=O)Nc4ccccc4C(=O)NC4CCCOC4)sc3C2)n1 (stereo not drawn) [Compound I-197]	≤ 3	2.3	> 3000	–	4.8	–
CC(C)NC(=O)c1ccccc1NC(=O)Nc1nc2c(s1)CN(c1cccc(S(C)(=O)=O)c1)CC2 [Compound I-198]	–	–	–	–	5.9	> 20000
COc1cc(N2CCc3nc(NC(=O)Nc4ccccc4C(=O)NC4CCOCC4)sc3C2)nc(OC)n1 [Compound I-203]	–	–	–	–	6.7	> 20000
C[C@@H](CO)NC(=O)c1ccccc1NC(=O)Nc1nc2c(s1)CN(c1cncc(S(C)(=O)=O)c1)CC2 [Compound I-211]	–	–	–	–	–	≥ 10000
COc1cncc(-c2cc(NC(=O)Nc3ccccc3C(=O)NC(C)C)nn2C)c1 [Compound I-226]	≤ 3000	830	> 3000	–	–	≥ 10000
